Laboratory results taken from ChEMBL document CHEMBL1201862, “PubChem BioAssay data set” (2004).
The source made the active and inactive calls.

Experiments:
[1] = biological target: T1, E3 ubiquitin-protein ligase XIAP (Homo sapiens, UniProt P98170); test: Counter Screen using XIAP-Bir3 for Chemical Antagonists of Bir1/2 domains of IAP-family anti-apoptotic proteins. [Related pubchem assays (depositor defined):AID1018, AID1449, AID1514, AID1638, AID1749, AID1750, AID488957, AID488963]
[2] = biological target: T2, Heat shock factor protein 1 (Mus musculus, UniProt P38532); test: inhibition of MG132-induced HSE-luciferase signal, confirmation, cell-based, NIH3T3, luminescence, dose retest (AID 2382); type: functional;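 note: NIH3T3 fibroblasts with HSF1-driven luciferase reporter stressed by proteasome inhibitor MG132; luminescence from HSF1-driven luciferase expression after 8 hours of MG132 stress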
T2 sequence (P38532 whole entry): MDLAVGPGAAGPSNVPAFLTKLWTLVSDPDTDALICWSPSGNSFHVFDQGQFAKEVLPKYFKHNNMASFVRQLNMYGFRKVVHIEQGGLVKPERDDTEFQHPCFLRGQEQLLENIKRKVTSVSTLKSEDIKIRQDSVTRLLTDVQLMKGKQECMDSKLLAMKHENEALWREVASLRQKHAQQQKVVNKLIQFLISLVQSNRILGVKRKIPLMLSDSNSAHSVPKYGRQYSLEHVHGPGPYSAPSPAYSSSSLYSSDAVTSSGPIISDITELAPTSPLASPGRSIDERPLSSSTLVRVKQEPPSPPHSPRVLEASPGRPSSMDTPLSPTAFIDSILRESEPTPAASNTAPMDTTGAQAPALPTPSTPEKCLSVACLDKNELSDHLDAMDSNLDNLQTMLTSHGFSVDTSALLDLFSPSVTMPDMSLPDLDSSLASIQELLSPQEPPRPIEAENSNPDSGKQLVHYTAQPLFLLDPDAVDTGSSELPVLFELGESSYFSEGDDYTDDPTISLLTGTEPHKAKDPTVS

[3] = biological target: T1, E3 ubiquitin-protein ligase XIAP; test: XIAP antagonists, biochemical, IAP family, fluorescence polarization (AID 1018); type: functional
[4] = Vero E6 cell cytotoxicity, dose response, cytotoxicity control for non-replicating M. tuberculosis project, secondary assay (AID 492998); type: functional, VeroE6; conditions: Vero C1008
[5] = cells; type: functional
[6] = THP-1 cell cytotoxicity, dose response, cytotoxicity control for non-replicating M. tuberculosis project (AID 489025); type: functional
[7] = biological target: T3, Zinc finger protein mex-5 (Caenorhabditis elegans, UniProt Q9XUB2); test: MEX-5/TCR-2 RNA interaction inhibitors, dose response, biochemical, C. elegans, fluorescence polarization (AID 1960)
T3 sequence (Q9XUB2 whole entry): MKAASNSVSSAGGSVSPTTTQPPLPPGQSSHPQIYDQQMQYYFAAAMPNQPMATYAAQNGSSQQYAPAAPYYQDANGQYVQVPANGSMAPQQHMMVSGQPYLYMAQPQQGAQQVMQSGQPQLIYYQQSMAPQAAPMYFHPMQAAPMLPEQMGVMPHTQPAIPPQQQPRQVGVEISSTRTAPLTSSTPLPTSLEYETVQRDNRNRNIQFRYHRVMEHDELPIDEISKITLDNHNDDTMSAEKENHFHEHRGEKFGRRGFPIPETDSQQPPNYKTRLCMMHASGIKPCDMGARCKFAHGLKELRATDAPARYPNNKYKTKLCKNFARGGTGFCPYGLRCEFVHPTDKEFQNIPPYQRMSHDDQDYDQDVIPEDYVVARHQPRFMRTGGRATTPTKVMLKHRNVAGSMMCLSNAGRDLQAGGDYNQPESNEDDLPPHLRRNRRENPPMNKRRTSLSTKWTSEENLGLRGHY

[8] = biological target: T4, Mucolipin-3 (Homo sapiens, UniProt Q8TDD5); test: Fluorescence counterscreen assay for […] agonists: dose response cell-based high-throughput screening assay to identify agonists of the transient receptor potential channel ML3 (TRPML3). [Related pubchem assays: 1424, 1448 ]; type: functional
T4 sequence (Q8TDD5 whole entry): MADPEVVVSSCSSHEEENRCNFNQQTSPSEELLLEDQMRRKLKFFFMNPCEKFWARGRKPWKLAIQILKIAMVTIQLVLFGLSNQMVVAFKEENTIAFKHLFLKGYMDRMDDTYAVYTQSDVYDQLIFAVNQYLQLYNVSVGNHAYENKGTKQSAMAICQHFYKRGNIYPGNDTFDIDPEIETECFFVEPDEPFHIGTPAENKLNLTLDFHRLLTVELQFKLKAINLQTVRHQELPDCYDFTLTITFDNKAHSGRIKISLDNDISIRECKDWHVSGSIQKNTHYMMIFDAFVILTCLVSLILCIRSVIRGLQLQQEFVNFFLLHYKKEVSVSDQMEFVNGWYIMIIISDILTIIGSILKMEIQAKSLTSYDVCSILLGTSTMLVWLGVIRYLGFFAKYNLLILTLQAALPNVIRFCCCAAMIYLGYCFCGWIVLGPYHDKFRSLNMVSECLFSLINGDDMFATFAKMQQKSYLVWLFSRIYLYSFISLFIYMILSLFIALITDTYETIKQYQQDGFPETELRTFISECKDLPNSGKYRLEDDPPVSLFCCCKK

[9] = biological target: T5, RNA-binding protein pos-1 (Caenorhabditis elegans, UniProt G5EF15); test: inhibitors of POS-1/mex-3 RNA binding, dose response, biochemical, fluorescence polarization (AID 1964);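 note: purified POS-1 fused to maltose binding protein made in E. coli; potency of compounds blocking POS-1 binding to fluorescent RNA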
T5 sequence (G5EF15 whole entry): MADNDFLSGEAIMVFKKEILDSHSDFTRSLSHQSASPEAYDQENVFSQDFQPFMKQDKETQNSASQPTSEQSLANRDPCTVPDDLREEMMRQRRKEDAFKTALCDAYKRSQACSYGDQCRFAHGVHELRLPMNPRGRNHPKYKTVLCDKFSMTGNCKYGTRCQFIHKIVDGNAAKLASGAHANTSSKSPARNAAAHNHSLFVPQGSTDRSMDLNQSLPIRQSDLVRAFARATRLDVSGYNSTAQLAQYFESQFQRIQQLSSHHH

[10] = biological target: Ion channel NompC (Danio rerio, UniProt Q7T1G6); test: Dose response cell-based high-throughput screening assay for agonists of the transient receptor potential channel N1 (TRPN1). [Related pubchem assays (depositor defined):AID1424, AID1448]; type: functional
[11] = biological target: T6, Dual specificity protein phosphatase 6 (Rattus norvegicus, UniProt Q64346)
T6 sequence (Q64346 whole entry): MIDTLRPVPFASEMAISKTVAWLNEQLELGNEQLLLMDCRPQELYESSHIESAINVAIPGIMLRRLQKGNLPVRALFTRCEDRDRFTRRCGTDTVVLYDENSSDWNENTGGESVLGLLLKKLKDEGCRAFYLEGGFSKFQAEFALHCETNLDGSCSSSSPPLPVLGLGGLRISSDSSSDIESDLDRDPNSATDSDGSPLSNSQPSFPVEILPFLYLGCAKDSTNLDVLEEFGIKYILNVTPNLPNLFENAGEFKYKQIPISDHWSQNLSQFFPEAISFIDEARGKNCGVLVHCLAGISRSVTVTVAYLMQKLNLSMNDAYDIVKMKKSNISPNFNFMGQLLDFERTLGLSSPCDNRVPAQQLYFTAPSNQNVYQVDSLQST

[12] = biological target: Glyceraldehyde-3-phosphate dehydrogenase (Homo sapiens, UniProt P04406)
[13] = biological target: T7, Tyrosine-protein phosphatase non-receptor type 7 (Homo sapiens, UniProt P35236); type: functional
T7 sequence (P35236 whole entry): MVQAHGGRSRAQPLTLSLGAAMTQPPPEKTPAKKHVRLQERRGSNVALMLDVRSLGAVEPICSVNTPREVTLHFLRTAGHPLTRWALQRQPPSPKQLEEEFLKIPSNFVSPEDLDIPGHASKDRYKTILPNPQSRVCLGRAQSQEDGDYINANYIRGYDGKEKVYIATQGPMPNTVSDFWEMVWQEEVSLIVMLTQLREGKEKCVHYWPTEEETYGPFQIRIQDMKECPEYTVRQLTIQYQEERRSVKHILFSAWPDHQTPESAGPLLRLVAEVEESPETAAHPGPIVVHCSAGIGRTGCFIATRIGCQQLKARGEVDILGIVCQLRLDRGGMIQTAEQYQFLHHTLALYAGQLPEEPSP

[14] = biological target: T6, Dual specificity protein phosphatase 6; type: functional
[15] = biological target: T2, Heat shock factor protein 1; test: HSF1 potentiators in luciferase reporter cells, confirmation, cell-based, NIH3T3, luminescence, dose retest (AID 435004); type: functional;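 note: stress induced by proteasome inhibitor MG132 added 30 min after compound; luciferase reporter driven by HSF1 response element in NIH3T3 cells; actives raise luminescence as potentiators of the MG132 stress response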
[16] = biological target: T8, Neuropeptides B/W receptor type 1 (Homo sapiens, UniProt P48145); test: Fluorescence-based dose response cell-based high throughput screening assay to identify antagonists of the G-protein coupled receptor 7 (GPR7). [Related pubchem assays: 1952 (Screening assay (GPR7 antagonists).), 1880 (Summary AID.)]; type: functional
T8 sequence (P48145 whole entry): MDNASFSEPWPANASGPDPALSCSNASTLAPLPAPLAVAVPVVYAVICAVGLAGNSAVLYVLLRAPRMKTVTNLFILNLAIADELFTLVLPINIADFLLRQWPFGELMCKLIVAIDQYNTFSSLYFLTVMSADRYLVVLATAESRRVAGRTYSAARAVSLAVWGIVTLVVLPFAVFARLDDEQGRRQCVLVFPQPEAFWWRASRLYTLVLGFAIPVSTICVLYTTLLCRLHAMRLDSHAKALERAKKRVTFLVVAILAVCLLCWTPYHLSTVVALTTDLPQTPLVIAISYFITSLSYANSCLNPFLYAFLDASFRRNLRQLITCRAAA

[17] = biological target: Melanin-concentrating hormone receptor 1 (Homo sapiens, UniProt Q99705); test: Fluorescence-based counterscreen for antagonists of the G-protein coupled receptor 7 (GPR7): cell-based high throughput dose response assay to identify antagonists of the melanin-concentrating hormone receptor 1 (MCHR1).; type: functional
[18] = biological target: T7, Tyrosine-protein phosphatase non-receptor type 7; test: redox-dependent HePTP inhibition, mechanism study, biochemical, fluorescence (AID 2068); type: functional
[19] = biological target: Alkaline phosphatase, placental type (Homo sapiens, UniProt P05187); test: PLAP enzyme inhibitors, confirmation, biochemical, luminescence (AID 1512); type: functional
[20] = biological target: T9, Alkaline phosphatase, tissue-nonspecific isozyme (Homo sapiens, UniProt P05186); test: human TNAP enzyme inhibitors, SAR follow-up, biochemical, luminescent, dose response (AID 1056)
T9 sequence (P05186 whole entry): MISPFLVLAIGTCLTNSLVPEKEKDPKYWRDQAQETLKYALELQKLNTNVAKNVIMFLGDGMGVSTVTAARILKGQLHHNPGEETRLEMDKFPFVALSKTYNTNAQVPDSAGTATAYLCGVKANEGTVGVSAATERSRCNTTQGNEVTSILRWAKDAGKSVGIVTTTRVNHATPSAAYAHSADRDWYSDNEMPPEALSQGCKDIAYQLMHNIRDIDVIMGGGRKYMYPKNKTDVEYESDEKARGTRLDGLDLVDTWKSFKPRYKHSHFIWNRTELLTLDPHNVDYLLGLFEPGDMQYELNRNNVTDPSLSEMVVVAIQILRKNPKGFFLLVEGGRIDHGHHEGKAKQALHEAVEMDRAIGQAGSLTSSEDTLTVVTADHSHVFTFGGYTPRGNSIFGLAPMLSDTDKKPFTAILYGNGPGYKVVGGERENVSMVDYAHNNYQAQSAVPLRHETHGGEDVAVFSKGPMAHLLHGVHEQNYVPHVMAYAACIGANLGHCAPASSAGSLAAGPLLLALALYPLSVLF

[21] = biological target: Voltage-gated N-type calcium channel alpha-1B subunit/Amyloid beta A4 precursor protein-binding family A member 1 (Homo sapiens, UniProt Q00975+Q02410); test: disruptors of Mint-PDZ/N-type channel peptide interaction – biochemical, HTRF, set 2, SAR follow-up (AID 434980); type: functional
[22] = Luminescent dose response cell-based high throughput screening assay for inhibitors of the Janus kinase 2 mutant JAK2V617F. [Related pubchem assays: 1446 (Primary screen.), 1521 (Confirmation assay.), 1486 (Counter screen.)]; type: functional
[23] = biological target: Eukaryotic translation initiation factor 4H (Homo sapiens, UniProt Q15056); test: human eIF4H binding inhibitors, primary screen, translation initiation inhibitor project, biochemical, uHTS, fluorescence polarization (AID 2012)
[24] = biological target: Polyadenylate-binding protein 1 (Homo sapiens, UniProt P11940); test: PABP poly(A) RNA binding inhibitors, primary screen, biochemical, fluorescence polarization, uHTS (AID 2014)
Polyadenylate-binding protein 1, sequence (P11940 whole entry): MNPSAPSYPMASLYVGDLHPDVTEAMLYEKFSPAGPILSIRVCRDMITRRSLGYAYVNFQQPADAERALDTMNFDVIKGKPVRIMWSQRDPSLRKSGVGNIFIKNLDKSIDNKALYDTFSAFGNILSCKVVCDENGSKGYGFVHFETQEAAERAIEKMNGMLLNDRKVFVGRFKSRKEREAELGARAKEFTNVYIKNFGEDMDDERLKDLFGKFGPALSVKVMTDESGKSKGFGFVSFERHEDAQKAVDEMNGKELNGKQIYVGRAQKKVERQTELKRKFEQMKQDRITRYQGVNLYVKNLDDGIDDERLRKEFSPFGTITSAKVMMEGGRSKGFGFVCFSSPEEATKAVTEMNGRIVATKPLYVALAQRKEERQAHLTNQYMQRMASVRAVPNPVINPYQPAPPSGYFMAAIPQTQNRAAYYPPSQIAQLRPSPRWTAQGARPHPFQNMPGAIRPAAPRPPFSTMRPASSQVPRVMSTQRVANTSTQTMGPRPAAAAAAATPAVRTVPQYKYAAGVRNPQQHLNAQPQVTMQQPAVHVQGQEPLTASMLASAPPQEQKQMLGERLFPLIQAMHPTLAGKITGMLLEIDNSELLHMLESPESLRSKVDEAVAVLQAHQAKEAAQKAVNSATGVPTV

T1 sequence (P98170 whole entry): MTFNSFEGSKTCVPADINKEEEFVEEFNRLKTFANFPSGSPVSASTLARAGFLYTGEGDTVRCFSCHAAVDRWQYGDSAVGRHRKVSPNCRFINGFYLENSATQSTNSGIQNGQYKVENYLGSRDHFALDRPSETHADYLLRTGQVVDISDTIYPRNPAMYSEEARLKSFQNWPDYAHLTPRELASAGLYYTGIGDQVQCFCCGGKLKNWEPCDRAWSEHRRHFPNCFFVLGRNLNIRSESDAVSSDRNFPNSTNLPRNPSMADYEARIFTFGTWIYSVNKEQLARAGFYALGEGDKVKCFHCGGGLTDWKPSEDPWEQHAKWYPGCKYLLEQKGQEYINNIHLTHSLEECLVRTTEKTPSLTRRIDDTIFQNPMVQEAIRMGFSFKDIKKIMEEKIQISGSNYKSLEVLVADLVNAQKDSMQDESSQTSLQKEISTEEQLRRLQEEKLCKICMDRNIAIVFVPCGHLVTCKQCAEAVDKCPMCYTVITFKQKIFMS
Alkaline phosphatase, placental type, sequence (P05187 whole entry): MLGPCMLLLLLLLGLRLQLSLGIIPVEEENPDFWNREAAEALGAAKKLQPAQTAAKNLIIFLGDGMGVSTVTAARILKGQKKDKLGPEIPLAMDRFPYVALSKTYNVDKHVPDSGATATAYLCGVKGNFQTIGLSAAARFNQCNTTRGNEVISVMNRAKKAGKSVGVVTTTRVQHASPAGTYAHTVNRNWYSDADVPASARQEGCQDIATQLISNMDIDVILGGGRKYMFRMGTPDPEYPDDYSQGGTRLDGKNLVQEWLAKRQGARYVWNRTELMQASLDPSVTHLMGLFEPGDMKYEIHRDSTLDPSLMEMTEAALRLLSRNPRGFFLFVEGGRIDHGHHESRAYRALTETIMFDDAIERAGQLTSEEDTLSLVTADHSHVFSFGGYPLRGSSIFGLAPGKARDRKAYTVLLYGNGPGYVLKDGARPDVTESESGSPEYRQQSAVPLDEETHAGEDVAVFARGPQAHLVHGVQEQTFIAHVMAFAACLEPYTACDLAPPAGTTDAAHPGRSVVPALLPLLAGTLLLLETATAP
Melanin-concentrating hormone receptor 1, sequence (Q99705 whole entry): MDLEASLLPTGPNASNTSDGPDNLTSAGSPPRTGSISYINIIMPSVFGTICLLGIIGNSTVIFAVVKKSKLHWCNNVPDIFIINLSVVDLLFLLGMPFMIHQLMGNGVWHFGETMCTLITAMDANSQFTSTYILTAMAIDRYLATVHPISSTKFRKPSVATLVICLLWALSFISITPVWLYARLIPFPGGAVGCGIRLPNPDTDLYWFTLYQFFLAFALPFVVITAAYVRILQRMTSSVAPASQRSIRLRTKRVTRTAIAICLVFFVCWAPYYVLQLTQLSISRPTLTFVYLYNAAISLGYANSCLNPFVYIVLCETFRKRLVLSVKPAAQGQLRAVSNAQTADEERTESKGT
Ion channel NompC, sequence (Q7T1G6 whole entry): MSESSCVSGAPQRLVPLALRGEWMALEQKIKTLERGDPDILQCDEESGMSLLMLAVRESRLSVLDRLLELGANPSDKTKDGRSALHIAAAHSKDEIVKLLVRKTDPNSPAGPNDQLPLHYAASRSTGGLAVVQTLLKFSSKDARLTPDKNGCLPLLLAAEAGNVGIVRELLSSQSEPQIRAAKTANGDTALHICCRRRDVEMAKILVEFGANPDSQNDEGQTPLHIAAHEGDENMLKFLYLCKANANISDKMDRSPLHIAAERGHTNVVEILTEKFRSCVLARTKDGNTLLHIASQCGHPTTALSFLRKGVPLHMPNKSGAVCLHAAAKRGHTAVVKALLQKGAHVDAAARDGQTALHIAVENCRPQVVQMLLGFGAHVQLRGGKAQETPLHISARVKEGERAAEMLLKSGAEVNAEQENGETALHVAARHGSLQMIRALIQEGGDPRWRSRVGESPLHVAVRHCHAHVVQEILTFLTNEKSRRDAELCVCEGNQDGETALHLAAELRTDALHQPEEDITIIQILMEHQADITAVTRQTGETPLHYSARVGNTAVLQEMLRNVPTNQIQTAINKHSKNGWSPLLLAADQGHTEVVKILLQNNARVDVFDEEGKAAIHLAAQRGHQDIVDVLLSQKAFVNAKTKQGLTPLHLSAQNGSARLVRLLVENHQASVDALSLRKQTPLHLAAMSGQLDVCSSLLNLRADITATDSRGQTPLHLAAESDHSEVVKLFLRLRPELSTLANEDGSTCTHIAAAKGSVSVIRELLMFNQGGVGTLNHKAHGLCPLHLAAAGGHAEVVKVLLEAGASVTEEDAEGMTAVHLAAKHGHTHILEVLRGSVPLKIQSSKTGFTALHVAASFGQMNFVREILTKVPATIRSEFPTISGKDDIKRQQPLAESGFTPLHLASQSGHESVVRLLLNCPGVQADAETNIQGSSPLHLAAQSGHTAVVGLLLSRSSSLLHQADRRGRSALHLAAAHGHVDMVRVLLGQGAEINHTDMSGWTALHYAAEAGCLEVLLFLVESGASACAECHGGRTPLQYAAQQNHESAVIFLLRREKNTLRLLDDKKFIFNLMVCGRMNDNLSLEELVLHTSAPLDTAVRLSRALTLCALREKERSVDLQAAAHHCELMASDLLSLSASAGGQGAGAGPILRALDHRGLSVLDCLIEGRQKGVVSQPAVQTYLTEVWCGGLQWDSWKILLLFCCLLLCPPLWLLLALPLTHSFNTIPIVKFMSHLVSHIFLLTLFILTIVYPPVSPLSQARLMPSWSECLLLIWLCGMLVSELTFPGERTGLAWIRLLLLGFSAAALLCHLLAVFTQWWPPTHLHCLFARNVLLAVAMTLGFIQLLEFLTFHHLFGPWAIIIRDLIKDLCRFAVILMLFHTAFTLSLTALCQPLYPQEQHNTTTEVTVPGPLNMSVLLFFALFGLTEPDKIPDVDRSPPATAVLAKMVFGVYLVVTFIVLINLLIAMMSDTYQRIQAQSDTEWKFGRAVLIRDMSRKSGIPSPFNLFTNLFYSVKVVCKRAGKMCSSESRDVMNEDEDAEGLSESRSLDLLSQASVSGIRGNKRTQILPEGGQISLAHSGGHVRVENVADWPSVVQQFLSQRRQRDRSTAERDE
Glyceraldehyde-3-phosphate dehydrogenase, sequence (P04406 whole entry): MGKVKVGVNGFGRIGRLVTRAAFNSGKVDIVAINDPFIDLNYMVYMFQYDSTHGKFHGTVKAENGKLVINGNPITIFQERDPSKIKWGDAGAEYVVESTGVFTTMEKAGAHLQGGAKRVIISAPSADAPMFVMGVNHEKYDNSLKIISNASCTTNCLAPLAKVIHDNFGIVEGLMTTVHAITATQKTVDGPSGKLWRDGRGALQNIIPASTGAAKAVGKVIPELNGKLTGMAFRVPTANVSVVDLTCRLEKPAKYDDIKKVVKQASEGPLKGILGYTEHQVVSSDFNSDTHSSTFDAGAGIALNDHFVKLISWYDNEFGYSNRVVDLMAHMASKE

O=C(c1ccc(O)cc1)c1ccc(C(=O)O)c(C(=O)O)c1
IC50 [1]: > 100 µM (inactive) | EC50 [2]: > 195 µM (not active) | IC50 [3]: > 100 µM (not active)

COc1cccc(/C=C2\SC(=S)N(CCC(=O)N3CCCCC3)C2=O)c1
CC50 [4]: 8.75 µM (active) | IC50 [5]: 17.2 µM (active) | CC50 [6]: 18.6 µM (active)

CC(C)/C=C1\CC/C(=C\c2ccc(N(C)C)cc2)C1=O
EC50 [7]: > 300 µM (inconclusive) | EC50 [8]: 1.9 µM (active) | EC50 [9]: > 300 µM (not active) | EC50 [10]: 0.507 µM (active)

C[C@@H](C(N)=O)n1c(=O)n(Cc2ccccc2)c(=O)n(-c2ccccc2)c1=O
IC50 [11]: > 100 µM (inactive) | IC50 [12]: > 100 µM (not active) | IC50 [13]: > 100 µM (not active) | IC50 [14]: > 100 µM (inactive)

Cc1ccccc1CC1(CO)CCCN(C(=O)c2ccccc2Cl)C1 (configuration not stated)
EC50 [15]: > 260 µM (inactive) | IC50 [16]: > 43.8 µM (not active) | IC50 [17]: 33.3 µM (not active)

COc1cc(C(=S)NCc2ccc(F)c(C(F)(F)F)c2)ccc1O
IC50 [18]: 1.65 µM (active) | IC50 [14]: > 100 µM (inactive)

CCn1c(SCC(=O)c2ccc(O)c(O)c2)nnc1-c1ccc(OC)cc1
IC50 [19]: 8.31 µM (inactive) | IC50 [20]: > 100 µM (inactive)

O=C(Nc1ncc(-c2ccccc2)s1)c1cc(-c2ccco2)nc2ccccc12
IC50 [21]: 18 µM (active)

COc1ccc(-n2nnnc2SCC(=O)c2ccc(O)c(O)c2)cc1
IC50 [19]: 1.42 µM (active) | IC50 [22]: 1.46 µM (active) | IC50 [20]: 5.93 µM (active)

CN1/C(=C/c2cccc[n+]2CCO)Sc2ccccc21
IC50 [23]: > 100 µM (inactive) | IC50 [24]: 1.87 µM (active)
